For one assay, the system named is HCT116 cells. In words: Growth inhibition assay (MTS). In kind it is cell-based. The note with it: Homo sapiens, HCT-116, 48 h, Table 5; HCT116 cells, 48 hours treatment, MTS; read-out: Growth Inhibition (GI50, uM) HCT116. The procedure: (§1) SW480 or HCT116 cells were placed into 96 well microplate (10^4cells/well) and incubated for 24 hours at 37° C. 20 μl of [3-(4,5-dimethylthiazol-2-yl)-5-(3-carboxyphenyl)-2-(4-sulfophenyl)-2H-tetrazolium, inner salt](MTS) solution (Promega) was added into each well and the absorbance after 2 hour incubation at 37° C. (negative control) was read. And then, the cells were treated with TCF4 compound at various concentrations for 48 hours. 20 μl of MTS solution (Promega) was added into each well and incubated for 2 hour at 37° C. Cell viability was measured by reading the absorbance at 490 nm using a microplate reader (Molecular device) and cytotoxicity of a compound at each concentration was calculated.
as §1, with “a test” for “TCF4”

The test system of another assay is SW480 cells. As to the kind of experiment: Growth inhibition assay (MTS). It is filed as cell-based. Conditions: Homo sapiens, SW480, 48 h, Table 5; SW480 cells, 48 hours treatment, MTS; read-out: Growth Inhibition (GI50, uM) SW480. As for the experimental part: as §1
as §1, with “a test” for “TCF4”

SMILES strings stand for the structures. Some results are limits rather than exact numbers.

The GI50 is the concentration giving 50% growth inhibition. Turning to `CN(C)Cc1cccc(CN2C[C@H]3N(C(=O)CN(C)N3C(=O)NCc3ccccc3)[C@@H](Cc3ccc(O)cc3)C2=O)c1` [Compound 89], the GI50 with HCT116 cells was 7.5 ± 1 µM; with SW480 cells it was 14.6 ± 1.4 µM.
For `CN1CC(=O)N2[C@@H](Cc3ccc(O)cc3)C(=O)N(Cc3cccc(N4CCOCC4)c3)C[C@@H]2N1C(=O)NCc1ccccc1` [Compound 90] the same measures were 14.7 ± 1 µM and 12.6 ± 0.9 µM.
Consider `C#CCN1CC(=O)N2[C@@H](Cc3ccc(O)cc3)C(=O)N(Cc3cccc(N4CCOCC4)c3)C[C@@H]2N1C(=O)NCc1ccccc1` [Compound 91], for which the GI50 came out at 3.2 ± 0.2 µM with HCT116 cells and 1.5 ± 0.1 µM with SW480 cells.
For `O=C1[C@H](Cc2ccc(O)cc2)N2C(=O)CON(C(=O)NCc3ccccc3)[C@H]2CN1Cc1cccc2cccnc12` [Compound 92] the same measures were 14.9 ± 2.2 µM and 12.9 ± 1 µM.
Consider `CCN1CC(=O)N2[C@@H](Cc3ccc(O)cc3)C(=O)N(Cc3cccc4cccnc34)C[C@@H]2N1C(=O)NCc1ccccc1` [Compound 93], for which the GI50 with HCT116 cells stood at 1.1 ± 0.1 µM; in the assay on SW480 cells, 1.9 ± 0.4 µM.
Regarding `CCCN1CC(=O)N2[C@@H](Cc3ccc(O)cc3)C(=O)N(Cc3cccc4cccnc34)C[C@@H]2N1C(=O)NCc1ccccc1` [Compound 94], the results for the GI50 in the assay with HCT116 cells and in the assay on SW480 cells were 0.7 ± 0.07 µM and 1.1 ± 0.3 µM, respectively.
In the same order, the values of `CCN1CC(=O)N2[C@@H](Cc3ccc(O)cc3)C(=O)N(Cc3cccc(N4CCOCC4)c3)C[C@@H]2N1C(=O)NCc1ccccc1` [Compound 95] are 7.1 ± 1.2 µM and 16.2 ± 2.6 µM.
As to `CCCN1CC(=O)N2[C@@H](Cc3ccc(O)cc3)C(=O)N(Cc3cccc(N4CCOCC4)c3)C[C@@H]2N1C(=O)NCc1ccccc1` [Compound 96], the figures for the GI50 in the assay on HCT116 cells and in the assay with SW480 cells were 3.4 ± 0.4 µM and 3.7 ± 0.4 µM, respectively.
For `CCN1CC(=O)N2[C@@H](Cc3ccc(O)cc3)C(=O)N(Cc3ccc(Cl)c(N(C)C)c3)C[C@@H]2N1C(=O)NCc1ccccc1` [Compound 97] the same measures were 5.2 ± 0.5 µM and 7.1 ± 1 µM.
Consider `CCCN1CC(=O)N2[C@@H](Cc3ccc(O)cc3)C(=O)N(Cc3ccc(Cl)c(N(C)C)c3)C[C@@H]2N1C(=O)NCc1ccccc1` [Compound 98], for which the GI50 in the assay on HCT116 cells came to 4.4 ± 0.5 µM; in the assay on SW480 cells, 7 ± 1.1 µM.
In the same order, the values of `C=CCN1CC(=O)N2[C@@H](Cc3ccc(O)cc3)C(=O)N(Cc3cccc(N4CCOCC4)c3)C[C@@H]2N1C(=O)NCc1ccccc1` [Compound 99] are 0.7 ± 0.1 µM and 1 ± 0.05 µM.
As to `C=CCN1CC(=O)N2[C@@H](Cc3ccc(O)cc3)C(=O)N(Cc3cccc4cccnc34)C[C@@H]2N1C(=O)NCc1ccccc1` [Compound 100], the GI50 in the assay on HCT116 cells amounted to 0.4 ± 0.1 µM; in the assay with SW480 cells, 0.3 ± 0.03 µM.
For `C=CCN1CC(=O)N2[C@@H](Cc3ccc(O)cc3)C(=O)N(Cc3ccc(Cl)c(N(C)C)c3)C[C@@H]2N1C(=O)NCc1ccccc1` [Compound 101] the same measures were 0.9 ± 0.1 µM and 1.1 ± 0.07 µM.
For `CN1CC(=O)N2[C@@H](Cc3ccc(O)cc3)C(=O)N(Cc3cccc(OCCN4CCOCC4)c3)C[C@@H]2N1C(=O)NCc1ccccc1` [Compound 102] the same measures were 4.9 ± 1.2 µM and 2.5 ± 0.4 µM.
Consider `C=CCN1CC(=O)N2[C@@H](Cc3ccc(O)cc3)C(=O)N(Cc3cccc(OCCN4CCOCC4)c3)C[C@@H]2N1C(=O)NCc1ccccc1` [Compound 104], for which the GI50 with HCT116 cells and in the assay with SW480 cells was below 0.4 µM in each case.
As for `C=CCN1CC(=O)N2[C@@H](Cc3ccc(O)cc3)C(=O)N(Cc3ccc(C)c(N4CCOCC4)c3)C[C@@H]2N1C(=O)NCc1ccccc1` [Compound 105], the 50% growth inhibitory concentration (GI50) in the assay on HCT116 cells turned out to be 2.1 ± 0.3 µM; in the assay on SW480 cells it was 2.8 ± 0.2 µM.
As for `C#CCN1CC(=O)N2[C@@H](Cc3ccc(O)cc3)C(=O)N(Cc3ccc(C)c(N4CCOCC4)c3)C[C@@H]2N1C(=O)NCc1ccccc1` [Compound 106], the values for the 50% growth inhibitory concentration (GI50) in the assay with HCT116 cells and in the assay on SW480 cells were 2.8 ± 0.4 µM and 4.5 ± 0.3 µM, respectively.
In the same order, the values of `C#CCN1CC(=O)N2[C@@H](Cc3ccc(O)cc3)C(=O)N(Cc3ccc4c(c3)OCCO4)C[C@@H]2N1C(=O)NCc1ccccc1` [Compound 107] are 1.6 ± 0.1 µM and 1.6 ± 0.1 µM.
